Among the data in US20150152083A1, “Compounds and Compositions for Modulating EGFR Activity” (IRM LLC, A Delaware Limited Liability Company, priority 2012, published 2015) are IC50 values, retold here.

Bounds are passed on as bounds.

Experiment [1] addresses T1, EGFR(L858R/T790M) (Homo sapiens, UniProt P00533, L858R/T790M). Put plainly: EGFR target modulation in engineered NIH3T3 cell lines (phospho-EGFR AlphaLISA). In kind it is cell-based. The arrangement: host or cells: NIH3T3. Particulars: NIH3T3 cells expressing human EGFR L858R/T790M; 3 hours compound. As to the method: (§1) EGFR Target Modulation in Engineered NIH3T3 Cell Lines
(§2) NIH3T3 cell lines expressing human EGFR (WT, L858R, and L858RT790M) (obtained from Matthew Meyerson's Lab at DFCI) were maintained in 10% FBS/DMEM supplemented with 100 μg/ml Penicillin/Streptomycin (Hyclone #SV30010) and 2 μg/ml Puromycin. The cells were harvested with 0.05% Trypsin/EDTA (Hyclone #SH30236.01), re-suspended in 5% FBS/DMEM Pen/Strep without Puromycin and plated at 9,000 cells per well in 50 μl of media in a 384-well black plate with clear bottoms (Greiner #789068G). The cells were allowed to incubate overnight in a 37° C., 5% CO2 humidified tissue culture incubator. A 12-point test compound curve was prepared by serial diluting a 10 μM stock 1:3 in DMSO in a 384-well compound plate (Greiner #789201L). The serial diluted compounds were transferred to the plate containing cells by using a 50 nl Pin Head device (Perkin Elmer) and the cells were placed back in the incubator for 3 hours. Only the EGFR WT-expressing cells were induced with 50 ng/ml EGF (Preprotech #AF-100-15) for 5 minutes before lysis. The media was removed and cells were lysed in 25 μl of Lysis buffer containing protease and phosphatase inhibitors (1% Triton X-100, 20 mM Tris, pH 7.5, 1 mM EDTA, 1 mM EGTA, 150 mM NaCl, 1× complete cocktail inhibitor (Roche #11 697 498 001), 1× Phosphatase Inhibitor Cocktail Set II and Set III (Sigma #P5726 and #P0044)). The plates were shaken at 4° C. for 5 minutes with foil top at maximum speed. An aliquot of 5 μl from each well was transferred to ProxiPlate™ 384-well Plus plates (PE #6008289). The plates were sealed with a foil top and frozen at −80° C. and thawed when needed.
(§3) The frozen aliquots were thawed and briefly centrifuged. All antibodies and beads were diluted in 1× AlphaLISA HiBlock Buffer (PE #AL004C). Biotinylated anti-phospho-EGFR (Y1068) (Cell Signaling #4031) was incubated with the lysate for 1 hour at room temperature at 1 nM final concentration. Goat anti-total EGFR (R&D Systems #AF231) was added and allowed to equilibrate for 1 hour at room temperature at 1 nM final concentration. Then, 10 μl of mixed beads (AlphaScreen Streptavidin Donor Beads (PE #6760002S) and AlphaLISA anti-goat IgG Acceptor Beads (PE #AL107C)) was equilibrated for 1.5 hours before reading on EnVision plate reader using the built-in settings for AlphaScreen.
(§4) Cells untreated (L858R and L858RT790M) or EGF-induced (WT) were set to 100% maximum response. For a negative control, 10 μM HKI-272 was used to normalize data to 0% of maximum response. With these parameters, the IC50's for each compound in each cell line was calculated using non-linear curve fitting analysis.
Target sequence in this assay (P00533 25-1210 T790M/L858R): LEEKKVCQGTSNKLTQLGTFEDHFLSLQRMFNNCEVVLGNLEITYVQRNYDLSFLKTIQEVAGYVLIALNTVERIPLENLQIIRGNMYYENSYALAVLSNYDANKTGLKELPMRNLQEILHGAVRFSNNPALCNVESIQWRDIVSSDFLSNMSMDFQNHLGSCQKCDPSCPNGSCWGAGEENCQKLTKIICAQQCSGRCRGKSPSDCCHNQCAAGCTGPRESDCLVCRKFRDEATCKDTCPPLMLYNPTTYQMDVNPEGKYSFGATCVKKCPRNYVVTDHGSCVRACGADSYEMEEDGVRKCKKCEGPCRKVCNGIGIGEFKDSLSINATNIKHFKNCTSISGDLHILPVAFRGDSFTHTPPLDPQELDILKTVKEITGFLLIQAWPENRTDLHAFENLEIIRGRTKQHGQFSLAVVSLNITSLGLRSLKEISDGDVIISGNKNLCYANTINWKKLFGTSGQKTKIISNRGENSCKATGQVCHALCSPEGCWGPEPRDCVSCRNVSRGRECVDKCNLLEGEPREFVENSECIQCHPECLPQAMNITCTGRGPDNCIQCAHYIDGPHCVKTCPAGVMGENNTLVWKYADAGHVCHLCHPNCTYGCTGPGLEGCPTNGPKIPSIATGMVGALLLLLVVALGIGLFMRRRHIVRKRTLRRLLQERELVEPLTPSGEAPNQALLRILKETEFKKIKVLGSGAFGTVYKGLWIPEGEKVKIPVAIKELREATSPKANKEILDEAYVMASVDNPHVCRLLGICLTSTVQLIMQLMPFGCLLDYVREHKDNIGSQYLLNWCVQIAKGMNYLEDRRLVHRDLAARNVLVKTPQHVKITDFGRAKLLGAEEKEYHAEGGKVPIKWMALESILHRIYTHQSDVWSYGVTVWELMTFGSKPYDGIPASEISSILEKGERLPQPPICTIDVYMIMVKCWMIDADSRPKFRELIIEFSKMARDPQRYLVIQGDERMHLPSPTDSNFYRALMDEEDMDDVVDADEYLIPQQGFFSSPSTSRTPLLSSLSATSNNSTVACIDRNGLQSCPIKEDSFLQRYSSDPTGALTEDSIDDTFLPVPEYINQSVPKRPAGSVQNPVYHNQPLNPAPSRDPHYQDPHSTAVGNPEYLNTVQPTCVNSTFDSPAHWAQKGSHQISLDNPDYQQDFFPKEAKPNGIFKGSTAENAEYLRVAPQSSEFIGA
A general note: Bead proximity is the source of the signal in Alpha formats.

A further experiment deals with T2, EGFR (L858R) (Homo sapiens, UniProt P00533, L858R).
T2 construct: host or cells: NIH3T3
The experiment is described as above. The format is cell-based. Particulars: NIH3T3 cells expressing human EGFR L858R; 3 hours compound. The method, then: as §1, §2, §3, §4

The target in another experiment is T3, EGFR (WT) (Homo sapiens, UniProt P00533).
T3 construct: host or cells: NIH3T3
The experiment is described as above. In kind it is cell-based. Particulars: NIH3T3 cells expressing human EGFR WT; 3 hours compound; induced with 50 ng/ml EGF. The method, then: as §1, §2, §3, §4

Experiment [2] has as its target T1, EGFR(L858R/T790M). In words: EGFR biochemical assay (HTRF), IC50 determination. Also on record: purchased from Carna (GST-a.a. 669-1210); purchased Carna. To be noted: 10 μM ATP. As to the method:
All EGFR biochemical assays were carried out by HTRF method. The EGFR(L858RT790M) enzyme were purchased from Carna (GST-a.a. 669-1210). The substrate peptide Biotin-TK-peptide was purchased from Cis-Bio. The reaction mixtures contained 1 μM peptide substrate, 10 μM ATP, and 0.036 nM EGFR(L858RT790M) in the reaction buffer (50 mM HEPES pH 7.1, 10 mM MgCl2, 0.01% BSA, 1 mM TCEP and 0.1 mM Na3VO4) at a final volume of 10 μL. All reactions were carried out at room temperature in white ProxiPlate™ 384-well Plus plates (PerkinElmer) and were quenched with 5 μL of 0.2 M EDTA at 60 min Five μL of the detection reagents (2.5 ng PT66K and 0.05 μg SAXL per well) were added, the plates were incubated at room temperature for 1 h and then read in EnVision reader. […] For no-preincubation condition, the compounds were added to the assay solution containing ATP and peptide, and the reaction was initiated by addition of enzyme. For pre-incubation conditions, the compounds were added to the assay solution containing enzyme and peptide, and pre-incubated at room temperature for desired period of time, then the reaction was initiated by addition of ATP.
Target sequence in this assay (P00533 669-1210 T790M/L858R): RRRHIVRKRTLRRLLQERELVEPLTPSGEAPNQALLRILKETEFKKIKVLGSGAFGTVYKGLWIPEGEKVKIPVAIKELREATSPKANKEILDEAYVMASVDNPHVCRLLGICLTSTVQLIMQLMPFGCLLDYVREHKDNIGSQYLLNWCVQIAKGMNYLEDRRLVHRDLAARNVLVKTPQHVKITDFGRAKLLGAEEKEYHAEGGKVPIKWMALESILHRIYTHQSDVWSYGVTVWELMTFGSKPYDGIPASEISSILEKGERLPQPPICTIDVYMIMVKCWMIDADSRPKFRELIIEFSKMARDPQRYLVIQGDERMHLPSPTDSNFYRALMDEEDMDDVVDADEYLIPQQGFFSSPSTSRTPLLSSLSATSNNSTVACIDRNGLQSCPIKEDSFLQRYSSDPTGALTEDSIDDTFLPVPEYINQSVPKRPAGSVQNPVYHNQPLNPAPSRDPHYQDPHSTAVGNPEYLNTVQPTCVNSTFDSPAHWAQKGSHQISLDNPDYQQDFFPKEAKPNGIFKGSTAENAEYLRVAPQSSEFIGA
In general terms: In TR-FRET formats the signal depends on donor and acceptor labels being close together.

Setting [3] is: EGFR (L858R/T790M) IC50 (μM) 90 min pre-incubation, 90 min pre-incubation.
[4] abbreviates: no pre-incubation, read-out: EGFR (L858R/T790M) IC50 (μM) No pre-incubation.

T2 sequence (P00533 25-1210 L858R): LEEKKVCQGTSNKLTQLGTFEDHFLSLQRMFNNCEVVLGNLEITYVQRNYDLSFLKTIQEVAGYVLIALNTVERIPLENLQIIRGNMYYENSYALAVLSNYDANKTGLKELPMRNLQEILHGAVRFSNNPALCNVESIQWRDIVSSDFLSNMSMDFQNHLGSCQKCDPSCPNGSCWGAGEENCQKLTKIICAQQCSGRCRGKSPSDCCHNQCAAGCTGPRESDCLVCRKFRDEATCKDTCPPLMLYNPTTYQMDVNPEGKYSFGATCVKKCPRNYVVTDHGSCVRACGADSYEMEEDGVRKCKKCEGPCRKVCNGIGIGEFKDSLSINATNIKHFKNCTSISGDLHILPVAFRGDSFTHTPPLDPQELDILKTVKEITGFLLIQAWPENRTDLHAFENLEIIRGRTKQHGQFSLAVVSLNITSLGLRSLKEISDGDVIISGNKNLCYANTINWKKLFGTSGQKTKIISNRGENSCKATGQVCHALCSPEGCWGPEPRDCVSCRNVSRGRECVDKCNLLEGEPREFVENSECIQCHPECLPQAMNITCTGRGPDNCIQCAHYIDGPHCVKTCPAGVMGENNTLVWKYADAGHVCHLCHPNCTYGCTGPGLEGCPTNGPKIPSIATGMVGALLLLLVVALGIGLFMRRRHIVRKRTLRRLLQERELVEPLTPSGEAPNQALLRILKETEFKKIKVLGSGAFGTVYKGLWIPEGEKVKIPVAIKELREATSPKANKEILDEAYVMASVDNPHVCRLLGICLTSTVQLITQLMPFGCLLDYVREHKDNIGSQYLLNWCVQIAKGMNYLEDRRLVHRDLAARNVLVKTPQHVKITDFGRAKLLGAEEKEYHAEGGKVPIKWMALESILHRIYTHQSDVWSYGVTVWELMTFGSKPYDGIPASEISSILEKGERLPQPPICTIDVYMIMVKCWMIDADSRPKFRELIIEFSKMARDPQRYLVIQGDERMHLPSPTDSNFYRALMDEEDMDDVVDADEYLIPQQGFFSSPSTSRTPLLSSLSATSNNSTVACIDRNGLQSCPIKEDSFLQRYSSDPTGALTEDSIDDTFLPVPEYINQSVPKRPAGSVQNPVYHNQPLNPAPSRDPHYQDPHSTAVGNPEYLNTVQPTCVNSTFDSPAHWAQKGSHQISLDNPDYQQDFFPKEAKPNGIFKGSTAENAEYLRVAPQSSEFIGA
T3 sequence (P00533 25-1210): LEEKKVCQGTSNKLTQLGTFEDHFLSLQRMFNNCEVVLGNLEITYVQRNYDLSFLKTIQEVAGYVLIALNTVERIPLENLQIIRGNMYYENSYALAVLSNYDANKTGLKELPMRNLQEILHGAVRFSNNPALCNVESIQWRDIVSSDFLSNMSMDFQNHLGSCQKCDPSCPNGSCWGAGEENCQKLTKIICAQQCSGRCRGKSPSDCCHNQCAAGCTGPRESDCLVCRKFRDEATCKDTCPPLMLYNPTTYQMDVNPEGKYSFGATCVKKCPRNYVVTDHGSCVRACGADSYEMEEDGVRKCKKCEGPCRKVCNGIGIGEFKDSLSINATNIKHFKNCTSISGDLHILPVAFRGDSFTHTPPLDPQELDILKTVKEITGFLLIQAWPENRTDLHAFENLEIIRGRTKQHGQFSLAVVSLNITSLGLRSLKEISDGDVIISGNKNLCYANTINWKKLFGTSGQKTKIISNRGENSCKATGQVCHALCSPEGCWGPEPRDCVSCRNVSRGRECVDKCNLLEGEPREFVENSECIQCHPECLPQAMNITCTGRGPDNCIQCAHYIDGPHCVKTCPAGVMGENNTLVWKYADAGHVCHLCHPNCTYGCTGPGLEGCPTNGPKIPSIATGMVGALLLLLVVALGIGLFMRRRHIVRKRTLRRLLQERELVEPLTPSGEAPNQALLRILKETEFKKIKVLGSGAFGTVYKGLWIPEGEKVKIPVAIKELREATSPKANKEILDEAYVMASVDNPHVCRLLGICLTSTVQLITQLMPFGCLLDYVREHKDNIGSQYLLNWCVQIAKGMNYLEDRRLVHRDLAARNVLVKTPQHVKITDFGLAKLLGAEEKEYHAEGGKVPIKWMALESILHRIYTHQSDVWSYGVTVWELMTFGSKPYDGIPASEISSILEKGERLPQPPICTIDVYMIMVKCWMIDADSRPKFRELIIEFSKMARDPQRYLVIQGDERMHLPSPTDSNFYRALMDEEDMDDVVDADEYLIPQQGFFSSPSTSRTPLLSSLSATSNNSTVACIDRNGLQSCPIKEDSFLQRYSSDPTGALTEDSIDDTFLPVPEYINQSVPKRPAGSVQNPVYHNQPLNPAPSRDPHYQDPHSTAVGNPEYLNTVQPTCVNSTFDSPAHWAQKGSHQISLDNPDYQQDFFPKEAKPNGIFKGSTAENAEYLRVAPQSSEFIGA

For the compound `C=CC(=O)N[C@@H]1CCC[C@H](n2c(NC(=O)c3cccc(C(F)(F)F)c3)nc3cccc(C)c32)C1` (racemic) [Example 7, cis-N-(1-(3-acrylamidocyclohexyl)-7-methyl-1H-benzo[d]imidazol-2-yl)-3-(trifluoromethyl)benzamide], the IC50 against EGFR(L858R/T790M) [1] is 0.037 µM; at EGFR (L858R), 0.28 µM; on EGFR (WT), > 10 µM; against EGFR(L858R/T790M) [2] (setting [3]) it was 0.002 µM; at EGFR(L858R/T790M) [2] (setting [4]) it was 0.039 µM.

Regarding `C=CC(=O)N[C@@H]1CCC[C@@H](n2c(NC(=O)c3cccc(C(F)(F)F)c3)nc3cc(C)ccc32)C1` (racemic) [Example 8-2, N-{5-methyl-1-[(1S,3S)-3-(prop-2-enamido)cyclohexyl]-1H-1,3-benzodiazol-2-yl}-3-(trifluoromethyl)benzamide], the IC50 on EGFR(L858R/T790M) [1] is 0.41 µM; at EGFR (L858R) it was > 3.7 µM; on EGFR (WT) it was > 10 µM; on EGFR(L858R/T790M) [2] (setting [3]) it was 0.051 µM; on EGFR(L858R/T790M) [2] (setting [4]), 0.27 µM.

Regarding `C=CC(=O)Nc1cccc(-n2c(NC(=O)c3ccc(F)cc3)nc3cc(C)ccc32)c1` [Example 1, N-(1-(3-acrylamidophenyl)-5-methyl-1H-benzo[d]imidazol-2-yl)-4-fluorobenzamide], the IC50 was 0.037 µM on EGFR(L858R/T790M) [1]; 0.053 µM at EGFR (L858R); > 10 µM on EGFR (WT); 0.002 µM at EGFR(L858R/T790M) [2] (setting [3]); 0.016 µM at EGFR(L858R/T790M) [2] (setting [4]).

Turning to `C=CC(=O)Nc1cccc(-n2c(NC(=O)c3cccc(F)c3)nc3cc(C)ccc32)c1` [Example 2-1, 3-fluoro-N-{5-methyl-1-[3-(prop-2-enamido)phenyl]-1H-1,3-benzodiazol-2-yl}benzamide], the IC50 on EGFR(L858R/T790M) [1] was 0.028 µM; at EGFR (L858R) it was 0.33 µM; on EGFR (WT) it was > 10 µM; on EGFR(L858R/T790M) [2] (setting [3]) it was 0.003 µM; on EGFR(L858R/T790M) [2] (setting [4]), 0.023 µM.

For the compound `C=CC(=O)Nc1cccc(-n2c(NC(=O)c3ccc(F)c(F)c3)nc3cc(C)ccc32)c1` [Example 2-2, 3,4-difluoro-N-{5-methyl-1-[3-(prop-2-enamido)phenyl]-1H-1,3-benzodiazol-2-yl}benzamide], the IC50 on EGFR(L858R/T790M) [1] is 0.08 µM; on EGFR (L858R) it was 0.2 µM; against EGFR (WT), > 10 µM; against EGFR(L858R/T790M) [2] (setting [3]) it was 0.002 µM; at EGFR(L858R/T790M) [2] (setting [4]) it was 0.054 µM.

For `C=CC(=O)Nc1cccc(-n2c(NC(=O)c3ccc(C)cc3)nc3cc(C)ccc32)c1` [Example 2-3, 4-methyl-N-{5-methyl-1-[3-(prop-2-enamido)phenyl]-1H-1,3-benzodiazol-2-yl}benzamide], the IC50 is 0.98 µM against EGFR(L858R/T790M) [1]; 0.77 µM on EGFR (L858R); > 10 µM at EGFR (WT); 0.034 µM against EGFR(L858R/T790M) [2] (setting [3]); 0.39 µM at EGFR(L858R/T790M) [2] (setting [4]).

For `C=CC(=O)Nc1cccc(-n2c(NC(=O)c3ccc(Cl)c(Cl)c3)nc3cc(C)ccc32)c1` [Example 2-4, 3,4-dichloro-N-{5-methyl-1-[3-(prop-2-enamido)phenyl]-1H-1,3-benzodiazol-2-yl}benzamide], the IC50 is 0.22 µM at EGFR(L858R/T790M) [1]; 0.33 µM against EGFR (L858R); > 10 µM against EGFR (WT); 0.023 µM at EGFR(L858R/T790M) [2] (setting [3]); 0.27 µM at EGFR(L858R/T790M) [2] (setting [4]).

With `C=CC(=O)Nc1cccc(-n2c(NC(=O)c3cccc(C)c3)nc3cc(C)ccc32)c1` [Example 2-5, 3-methyl-N-{5-methyl-1-[3-(prop-2-enamido)phenyl]-1H-1,3-benzodiazol-2-yl}benzamide], the IC50 on EGFR(L858R/T790M) [1] is 0.17 µM; against EGFR (L858R), 1.3 µM; at EGFR (WT), > 10 µM; at EGFR(L858R/T790M) [2] (setting [3]), 0.012 µM; on EGFR(L858R/T790M) [2] (setting [4]) it was 0.14 µM.

For `C=CC(=O)Nc1cccc(-n2c(NC(=O)c3cccc(Oc4ccccc4)c3)nc3cc(C)ccc32)c1` [Example 2-6, N-{5-methyl-1-[3-(prop-2-enamido)phenyl]-1H-1,3-benzodiazol-2-yl}-3-phenoxybenzamide], the IC50 was 0.062 µM at EGFR(L858R/T790M) [1]; 0.27 µM against EGFR (L858R); > 10 µM against EGFR (WT); < 0.001 µM against EGFR(L858R/T790M) [2] (setting [3]); 0.021 µM on EGFR(L858R/T790M) [2] (setting [4]).

As for `C=CC(=O)Nc1cccc(-n2c(NC(=O)c3cccc(-c4ccccc4)c3)nc3cc(C)ccc32)c1` [Example 2-7, N-{5-methyl-1-[3-(prop-2-enamido)phenyl]-1H-1,3-benzodiazol-2-yl}-3-phenylbenzamide], the IC50 is 0.007 µM against EGFR(L858R/T790M) [1]; 0.023 µM at EGFR (L858R); > 10 µM against EGFR (WT); < 0.001 µM against EGFR(L858R/T790M) [2] (setting [3]); 0.006 µM on EGFR(L858R/T790M) [2] (setting [4]).

In the case of `C=CC(=O)Nc1cccc(-n2c(NC(=O)c3ccc4ccccc4c3)nc3cc(C)ccc32)c1` [Example 2-8, N-{5-methyl-1-[3-(prop-2-enamido)phenyl]-1H-1,3-benzodiazol-2-yl}naphthalene-2-carboxamide], the IC50 at EGFR(L858R/T790M) [1] was 0.38 µM; against EGFR (L858R), 0.64 µM; on EGFR (WT), > 10 µM; against EGFR(L858R/T790M) [2] (setting [3]), 0.013 µM; on EGFR(L858R/T790M) [2] (setting [4]), 0.18 µM.

As for `C=CC(=O)Nc1cccc(-n2c(NC(=O)c3cccc(C(F)(F)F)c3)nc3cc(C)ccc32)c1` [Example 2-9, N-{5-methyl-1-[3-(prop-2-enamido)phenyl]-1H-1,3-benzodiazol-2-yl}-3-(trifluoromethyl)benzamide], the IC50 was 0.052 µM on EGFR(L858R/T790M) [1]; 0.55 µM on EGFR (L858R); > 10 µM against EGFR (WT); 0.006 µM on EGFR(L858R/T790M) [2] (setting [3]); 0.049 µM at EGFR(L858R/T790M) [2] (setting [4]).

On to `C=CC(=O)N(C)c1cccc(-n2c(NC(=O)c3cccc(C(F)(F)F)c3)nc3cc(C)ccc32)c1` [Example 2-10, N-{5-methyl-1-[3-(N-methylprop-2-enamido)phenyl]-1H-1,3-benzodiazol-2-yl}-3-(trifluoromethyl)benzamide], for which the IC50 at EGFR(L858R/T790M) [1] was 0.11 µM; at EGFR (L858R), 0.66 µM; against EGFR (WT) it was > 8 µM; on EGFR(L858R/T790M) [2] (setting [3]) it was 0.003 µM; on EGFR(L858R/T790M) [2] (setting [4]), 0.085 µM.

On to `C=CC(=O)Nc1cccc(-n2c(NC(=O)c3cccc(C(F)(F)F)c3)nc3cccc(C)c32)c1` [Example 2-13, N-{7-methyl-1-[3-(prop-2-enamido)phenyl]-1H-1,3-benzodiazol-2-yl}-3-(trifluoromethyl)benzamide], for which the IC50 is 0.079 µM against EGFR(L858R/T790M) [1]; 0.31 µM against EGFR (L858R); > 10 µM at EGFR (WT); 0.004 µM at EGFR(L858R/T790M) [2] (setting [3]); 0.057 µM at EGFR(L858R/T790M) [2] (setting [4]).
